Experimental data reported in paper PMC4642536, “Structural analysis of fungus-derived FAD glucose dehydrogenase” (Scientific Reports, 2015).

Experiments:
[1] = biological target: T1, AfGDH (Aspergillus flavus FAD-dependent glucose dehydrogenase, FADGDH) (Aspergillus flavus, UniProt B8MX95); assay: X-ray crystal structure, […] Å; format: binding; details: co-purified cofactor, refined as reduced form; pH 6.5; also in 4YNU
T1 construct: gene F9C07_464; residues 24-593, secretion signal peptide (1-22) removed; codon-optimised synthetic gene in pET30C, E. coli Origami2 (DE3); nonglycosylated; monomer
T1 sequence (B8MX95 24-593): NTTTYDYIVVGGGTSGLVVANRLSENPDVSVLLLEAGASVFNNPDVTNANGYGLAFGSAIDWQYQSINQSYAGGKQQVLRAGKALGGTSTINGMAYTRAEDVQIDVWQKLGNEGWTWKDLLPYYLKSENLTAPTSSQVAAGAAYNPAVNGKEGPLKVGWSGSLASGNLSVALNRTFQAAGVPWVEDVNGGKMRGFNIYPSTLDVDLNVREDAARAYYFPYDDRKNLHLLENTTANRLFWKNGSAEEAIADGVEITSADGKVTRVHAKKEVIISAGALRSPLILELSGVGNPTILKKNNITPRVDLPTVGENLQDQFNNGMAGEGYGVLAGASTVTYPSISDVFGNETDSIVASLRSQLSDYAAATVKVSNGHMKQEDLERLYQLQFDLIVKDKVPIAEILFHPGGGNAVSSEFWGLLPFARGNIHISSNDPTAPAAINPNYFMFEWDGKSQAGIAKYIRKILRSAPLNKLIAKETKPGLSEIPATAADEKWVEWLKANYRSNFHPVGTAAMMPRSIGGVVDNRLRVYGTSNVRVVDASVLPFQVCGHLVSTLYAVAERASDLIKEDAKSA

[2] = biological target: T1, AfGDH (Aspergillus flavus FAD-dependent glucose dehydrogenase, FADGDH); assay: PMS/DCIP reduction, absorbance at […] nm; FAD reduction spectrum; format: biochemical; details: 200 mM D-glucose, 0.6 mM PMS, 0.06 mM DCIP, 10 mM potassium phosphate pH 6.5, 25 °C

Structure (SMILES) | X-ray crystal structure, 1.78 Å [1] | specific activity [2]
Cc1cc2c(cc1C)N(C[C@H](O)[C@H](O)[C@H](O)COP(=O)(O)OP(=O)(O)OC[C@H]1O[C@@H](n3cnc4c(N)ncnc43)[C@H](O)[C@@H]1O)c1[nH]c(=O)[nH]c(=O)c1N2 [reduced FAD] | The bound FAD molecule was refined as a reduced FAD cofactor (FADH2) | –
OC[C@H]1OC(O)[C@H](O)[C@@H](O)[C@@H]1O (stereo partly drawn) [D-glucose] | – | The addition of glucose to the wild type enzyme resulted in the disappearance of the peaks
